Test results taken from patent US12508320B2, “Drug conjugate, pharmaceutical composition and method of treating hepatitis” (SeeCure Taiwan Co., Ltd., priority 2023, dated 2025).

Legend:
[1] = test system: HepG2 2.2.15 cells (a cell line that expresses the hepatitis B virus); assay: In vitro cell line evaluation: HBsAg/HBeAg levels in culture media of HepG2 2.2.15 cells (AXSYM system kit); format: cell-based; design: HBsAg level: unit of the concentration uncertain; conditions: 6-9 days of incubation
Method: In the following experimental examples, when HepG2 2.2.15 cells (a cell line that expresses the hepatitis B virus) are used, the cells are maintained in Dulbecco's modified Eagle's medium (DMEM) (Gibco BRL, Grand Island, NY, USA) plus 10% fetal bovine serum (Hyclone, Logan, UT, USA), 100U/mL penicillin, […] streptomycin. HepG2.2.15 cells were seeded at the same density and used as a medium control. The experimental group is composed by administering the substance in the concentration specified by the manufacturer. All cultures were grown in humidified incubators at 37° C. and 5% CO2.
HepG2 2.2.15 cells were plated into 12-well microtiter plates. On day zero, the cells were washed several times with PBS and treated with tetracycline-free medium that contained either a test drug or a vehicle control group. Each test compound was screened at one concentration in triplicate. On day 3, day 6 and/or day 9, the medium was removed and replaced with fresh medium containing the compound. Twenty-four hours later, the medium was collected and clarified by centrifugation (Sorvall RT-6000D centrifuge, 1,000 rpm, 5 min). Media of HepG2 2.2.15 cells cultures were harvested at 3—, 6-, and 9-days post-HBV infection, and levels of hepatitis B surface antigen (HBsAg) and hepatitis B e antigen (HBeAg) in culture media were measured using an AXSYM system kit (Abbott Diagnostika).
In experimental example 1, five hepatitis treatment groups were prepared and added to HepG2 2.2.15 cells for evaluation. Group 1 is a control group containing only medium (PBS), whereby no drug compound is added. Group 2 is where a conventional drug Entecavir […] is used alone. Group 3 (CPD-0148) is directed to a compound of formula (IA2) […]. Group 4 (CPD-0150) is directed to a compound of formula (IA3) […]. Group 5 (CPD-0147) is directed to a compound of formula (IA4) […]. After 6-9 days of incubation with the above treatment groups, the levels of hepatitis B surface antigen (HBsAg) were measured using an AXSYM system kit (Abbott Diagnostika), and the results are shown in FIG. 10.
In experimental example 2, eight hepatitis treatment groups were prepared and added to HepG2 2.2.15 cells for evaluation. Group 1 is a control group containing only medium (PBS), whereby no drug compound is added. Group 2 is where a conventional drug Birinapant […] is used alone. Group 3 (CPD-0004) is directed to a compound of formula (IB1) […]. Group 4 (CPD-0030) is directed to a compound of formula (IB7) […]. Group 5 (CPD-0036) is directed to a compound of formula (IB2) […]. Group 6 (CPD-0133) is directed to a compound of formula (IB3) […]. Group 7 (CPD-0142) is directed to a compound of formula (IB4) […]. Group 8 (CPD-0186) is directed to a compound of formula (IB5) […]. After 6-9 days of incubation with the above treatment groups, the levels of hepatitis B surface antigen (HBsAg) were measured using an AXSYM system kit (Abbott Diagnostika), and the results are shown in FIG. 11.
In experimental example 3, thirteen hepatitis treatment groups were prepared and added to HepG2 2.2.15 cells for evaluation. Group 1 is a control group containing only medium (PBS), whereby no drug compound is added. Group 2 (Teno-Int) is where an intermediate of the conventional drug Tenofovir (100 mM; structure shown in first step of FIG. 3) is used alone. Group 3 (CPD-0134) is directed to a compound of formula (IC1) […]. Group 4 (CPD-0136) is directed to a compound of formula (IC2) […]. Group 5 (CPD-0137) is directed to a compound of formula (IC3) (510 mM). Group 6 (CPD-0138) is directed to a compound of formula (IC4) […]. Group 7 (CPD-0139) is directed to a compound of formula (IC5) […]. Group 8 (CPD-0143) is directed to a compound of formula (IC6) […]. Group 9 (CPD-0144) is directed to a compound of formula (IC7) […]. Group 10 (CPD-0149) is directed to a compound of formula (IC8) […]. Group 11 (CPD-0158) is directed to a compound of formula (IC9) […]. Group 12 (CPD-0169) is directed to a compound of formula (IC10) […]. […]

[2] = clinical studies, Birinapant used in combination with HBV drugs such as Tenofovir or Entecavir; cited from earlier work
[3] = Experimental example 6, HepG2 2.2.15 cells, 100 mM (each), FIG. 15

CN[C@@H](C)C(=O)N[C@H](C(=O)N1CCC[C@H]1c1nc(C(=O)c2ccc(F)cc2)cs1)C1CCCCC1 [LCL161]
HBsAg level ([1]; Experimental example 4, HepG2 2.2.15 cells, 500 (unit uncertain), FIG. 13): capable of reducing the HBsAg level as compared with the control

C=C1[C@H](CO)[C@@H](O)C[C@@H]1n1cnc2c(=O)[nH]c(N)nc21 [Entecavir]
HBsAg level ([1]; Experimental example 1, HepG2 2.2.15 cells, 100 (unit uncertain), FIG. 10): capable of reducing the HBsAg level as compared with the control
HBeAg level [1, 3]: effective in reducing the HBsAg and HBeAg levels as compared with the control
HBsAg level [1, 3]: effective in reducing the HBsAg and HBeAg levels as compared with the control

CC[C@H](NC(=O)[C@H](C)NC)C(=O)N1C[C@@H](O)C[C@H]1Cc1c(-c2[nH]c3cc(F)ccc3c2C[C@@H]2C[C@H](O)CN2C(=O)[C@H](CC)NC(=O)[C@H](C)NC)[nH]c2cc(F)ccc12 [Birinapant]
HBsAg level ([1]; Experimental example 2, HepG2 2.2.15 cells, 500 (unit uncertain), FIG. 11): capable of reducing the HBsAg level as compared with the control
side effects [2]: cranial nerve palsies (or Bell's palsies)

C[C@@H](O)Cn1cnc2c(N)ncnc21 [Teno-Int, (R)-1-(6-amino-9H-purin-9-yl)propan-2-ol]
HBsAg level ([1]; Experimental example 3, HepG2 2.2.15 cells, 100 mM (IC3: 510 mM), FIG. 12): slightly reduced as compared to the control
